Measured values taken from patent publication US20060073589A1, “Rapid generation of activated mononuclear antigen presenting cells from monocytes” (priority 2002, published 2006).
*1 amine or outer side, *2 acyl side, *3 side chain or, on linkers, in order; H or OH if unused. Where a SMILES comes first, the peptide text is derived from it. Bridges are numbered along the chain shown (N, C = ends). Roman numbers before positions name the chains, in order. [ ]: non-standard residue; d: D form. Actinocin(9to1) = Cc1c2oc3c(C)ccc(C(=O)[*:1])c3nc-2c(C(=O)[*:2])c(N)c1=O; NMeV = CN[C@H](C(=O)O)C(C)C; Sar = CNCC(=O)O

Test system: CD83 expression on the cell membrane of monocytes
Assay: CD83 surface expression on monocytes cultured with metabolic inhibitors
Assay type: cell-based, human
Settings: 4 h monocyte culture, inhibitor added at beginning; actinomycin D 100 ng/ml, cyclohexamide 100 μM, brefeldin A 5 μg/ml
Description: The dotted line indicates the FACS profile of cells stained with isotype control mAb. The data are representative of three independent experiments.
Cells were washed and resuspended in PBS containing 1% human serum and incubated with fluorochrome-conjugated mAbs for 30 min at 4° C. The following mAbs were used for immunofluorescent staining: anti-CD14, CD80, CD4, CD25, CD54, HLA-DR (Becton Dickinson, San Jose Calif.), CD40, CD86, CD83, CD1a, CD62L, HLA A-B-C, ManR, CD58, LFA-1, CD32 (Pharmingen, San Diego, Calif.), CD2 (clone SFCI3Pt2H9; Beckman Coulter, Fullerton, Calif.), CD33 (Immunotech). Samples were collected and analysed by using a FACSort (Becton Dickinson) and data analysis was performed by CellQuest software (Becton Dickinson). Cells were electronically gated according to light scatter properties, in order to exclude cell debris and contaminating lymphocytes.
The CD83 surface expression in cells cultured in the presence of various metabolic inhibitors added at the beginning of the culture was examined.

| SMILES | inhibition of up-regulation of CD83 expression on the cell membrane |
| --- | --- |
| Cc1c2oc3c(C)ccc(C(=O)N[C@@H]4C(=O)N[C@H](C(C)C)C(=O)N5CCC[C@H]5C(=O)N(C)CC(=O)N(C)[C@@H](C(C)C)C(=O)O[C@@H]4C)c3nc-2c(C(=O)N[C@@H]2C(=O)N[C@H](C(C)C)C(=O)N3CCC[C@H]3C(=O)N(C)CC(=O)N(C)[C@@H](C(C)C)C(=O)O[C@@H]2C)c(N)c1=O [actinomycin D] (I: T[dV]P[Sar][NMeV] / II: T[dV]P[Sar][NMeV]; ester I:1-I:C, II:1-II:C; linker I:N-II:N via Actinocin(9to1)) | not significantly inhibited |
| C[C@@H]1C[C@@H]([C@H](O)CC2CC(=O)NC(=O)C2)C(=O)[C@@H](C)C1 [cyclohexamide] | completely blocked |
| C[C@H]1CCC/C=C/[C@@H]2C[C@H](O)C[C@H]2[C@H](O)/C=C/C(=O)O1 [brefeldin A] | completely blocked |
